Earlier results as cited in patent US20070111953A1, “Compositions to improve the bioavailability of polymethoxyflavones and tocotrienols for treatment of cardiovascular disease” (KGK Synergize, Inc., priority 2005, published 2007).

Test system: acetylated LDL metabolism

Question: For `COc1ccc(-c2cc(=O)c3c(OC)c(OC)c(OC)c(OC)c3o2)cc1OC` [nobiletin], which “Inhibition of acetylated LDL metabolism” value is on record?
Answer: 50-72%
